Experimental data as given in patent US10017791B2, “Coryneform bacterium transformant and process for producing 4-hydroxybenzoic acid or salt thereof using the same” (GREEN PHENOL DEVELOPMENT CO., LTD., priority 2014, dated 2018).

Legend:
[1] = molecular target: chorismate-pyruvate lyase of Providencia burhodogranariea (Providencia burhodogranariea, UniProt K8VY45); assay: Product inhibition of chorismate-pyruvate lyase activity by 4-HBA (IC50); format: biochemical; conditions: cell lysate supernatant of strain HBA7
Sequence of chorismate-pyruvate lyase of Providencia burhodogranariea (K8VY45 entry or part of it): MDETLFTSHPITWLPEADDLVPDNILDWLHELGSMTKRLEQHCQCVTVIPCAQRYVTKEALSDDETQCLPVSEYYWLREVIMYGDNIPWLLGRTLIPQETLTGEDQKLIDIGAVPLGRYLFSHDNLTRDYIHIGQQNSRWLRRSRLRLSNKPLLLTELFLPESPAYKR
Method: (§1) Each kind of the bacterial cells cultured and proliferated as above was collected by centrifugation (8,000 rpm, 4° C., 10 minutes). After disrupting the bacterial cells by sonication, centrifugation (15,000 rpm, 4° C., 20 minutes) was performed. Using the supernatant of the cell lysate as a crude enzyme liquid, chorismate-pyruvate lyase activity was determined by the following method. The crude enzyme liquid, 50 mM Tris-HCl (pH 7.5), 0.5 mM of chorismate Ba salt, 0.2 mM of NADH, 0.2 M of NaCl and 5 units of lactate dehydrogenase were mixed, the reaction was allowed to proceed at 33° C., and the decrease in absorbance of NADH at 340 nm was monitored to analyze the initial rate of the reaction. From the initial rate of the reaction and the protein concentration, the specific activity was calculated (the amount of the enzyme that produces 1 μmol of 4-HBA per minute was defined as 1 unit). (After the reaction mixture was filtered, the resulting 4-HBA was subjected to HPLC for direct detection of the peak of 4-HBA (Cosmosil C18 ARII made by Nacalai Tesque, mobile phase: 20% methanol and 0.07% perchloric acid) to separately confirm that the two assay methods were similar in quantitative performance.)
(§2) Using the supernatants of the cell lysates of the strains of HBA-1 to HBA-21 prepared in Example 2, inhibition by the product, 4-HBA, was examined.

[2] = molecular target: T1, chorismate-pyruvate lyase of Cronobacter sakazakii (Cronobacter sakazakii, UniProt A7MPN9); assay: as above; format: biochemical; conditions: cell lysate supernatant of strain HBA12
T1 construct: 5′-[…]-3′
T1 sequence (A7MPN9 whole entry, looked up): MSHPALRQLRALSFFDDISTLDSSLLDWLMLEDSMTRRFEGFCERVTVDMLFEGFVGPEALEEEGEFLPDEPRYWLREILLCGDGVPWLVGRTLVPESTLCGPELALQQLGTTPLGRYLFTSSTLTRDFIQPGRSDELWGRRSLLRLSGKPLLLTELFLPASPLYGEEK
Method: as §1, §2

[3] = molecular target: chorismate-pyruvate lyase of Morganella morganii (Morganella morganii, UniProt M1SIE1); assay: as above; format: biochemical; conditions: cell lysate supernatant of strain HBA18
Sequence of chorismate-pyruvate lyase of Morganella morganii (M1SIE1 entry or part of it): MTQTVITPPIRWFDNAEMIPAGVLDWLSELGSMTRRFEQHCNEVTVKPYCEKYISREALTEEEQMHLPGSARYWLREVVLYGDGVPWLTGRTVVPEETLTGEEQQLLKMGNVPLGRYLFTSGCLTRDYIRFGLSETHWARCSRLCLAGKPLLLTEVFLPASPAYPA
Method: as §1, §2

[4] = molecular target: chorismate-pyruvate lyase of Escherichia fergusonii (Escherichia fergusonii, UniProt B7LL11); assay: as above; format: biochemical; conditions: cell lysate supernatant of strain HBA9
Sequence of chorismate-pyruvate lyase of Escherichia fergusonii (B7LL11 entry or part of it): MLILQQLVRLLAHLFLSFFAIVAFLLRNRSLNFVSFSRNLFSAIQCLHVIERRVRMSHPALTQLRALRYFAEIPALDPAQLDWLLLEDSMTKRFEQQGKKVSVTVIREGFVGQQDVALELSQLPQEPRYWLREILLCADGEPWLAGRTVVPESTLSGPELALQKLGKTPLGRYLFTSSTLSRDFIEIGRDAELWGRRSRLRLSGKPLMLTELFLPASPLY
Method: as §1, §2

[5] = molecular target: chorismate-pyruvate lyase of Shewanella putrefaciens (Shewanella putrefaciens, UniProt A0ABX8XB71); assay: as above; format: biochemical; conditions: cell lysate supernatant of strain HBA20
Sequence of chorismate-pyruvate lyase of Shewanella putrefaciens (A0ABX8XB71 entry or part of it): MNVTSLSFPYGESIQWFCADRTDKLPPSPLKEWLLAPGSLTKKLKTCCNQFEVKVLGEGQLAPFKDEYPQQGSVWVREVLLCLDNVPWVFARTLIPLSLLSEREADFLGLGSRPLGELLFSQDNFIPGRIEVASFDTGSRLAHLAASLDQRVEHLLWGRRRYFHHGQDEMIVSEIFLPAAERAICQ
Method: as §1, §2

[6] = molecular target: T2, chorismate-pyruvate lyase of Escherichia coli (Escherichia coli, UniProt P26602); assay: as above; format: biochemical; conditions: cell lysate supernatant of strain HBA8
T2 construct: made in house; host or cells: Corynebacterium glutamicum R (crude cell-lysate supernatant)
T2 sequence (P26602 whole entry): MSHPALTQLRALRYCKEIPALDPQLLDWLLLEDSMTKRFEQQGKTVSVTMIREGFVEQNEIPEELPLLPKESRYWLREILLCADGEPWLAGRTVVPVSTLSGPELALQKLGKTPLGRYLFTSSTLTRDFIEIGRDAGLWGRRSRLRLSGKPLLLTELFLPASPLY
Method: as §1, §2

[7] = molecular target: chorismate-pyruvate lyase of Citrobacter koseri (Citrobacter koseri, UniProt A8AN89); assay: as above; format: biochemical; conditions: cell lysate supernatant of strain HBA14
Sequence of chorismate-pyruvate lyase of Citrobacter koseri (A8AN89 whole entry, looked up): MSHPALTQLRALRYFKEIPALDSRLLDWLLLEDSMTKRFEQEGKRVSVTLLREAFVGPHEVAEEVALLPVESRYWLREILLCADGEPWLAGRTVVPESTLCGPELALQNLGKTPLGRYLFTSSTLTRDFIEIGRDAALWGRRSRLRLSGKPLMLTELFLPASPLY
Method: as §1, §2

[8] = molecular target: chorismate-pyruvate lyase of Enterobacter aerogenes (Klebsiella aerogenes, UniProt A0A0H3FPH2); assay: as above; format: biochemical; conditions: cell lysate supernatant of strain HBA15
Sequence of chorismate-pyruvate lyase of Enterobacter aerogenes (A0A0H3FPH2 entry or part of it): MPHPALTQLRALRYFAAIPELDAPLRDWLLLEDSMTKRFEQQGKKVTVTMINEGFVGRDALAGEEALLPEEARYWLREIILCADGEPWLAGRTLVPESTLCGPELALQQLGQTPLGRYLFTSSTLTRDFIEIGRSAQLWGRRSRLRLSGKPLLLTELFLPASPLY
Method: as §1, §2

[9] = molecular target: chorismate-pyruvate lyase of Providencia sneebia (Providencia sneebia, UniProt K8VZZ4); assay: as above; format: biochemical; conditions: cell lysate supernatant of strain HBA4
Sequence of chorismate-pyruvate lyase of Providencia sneebia (K8VZZ4 1-168): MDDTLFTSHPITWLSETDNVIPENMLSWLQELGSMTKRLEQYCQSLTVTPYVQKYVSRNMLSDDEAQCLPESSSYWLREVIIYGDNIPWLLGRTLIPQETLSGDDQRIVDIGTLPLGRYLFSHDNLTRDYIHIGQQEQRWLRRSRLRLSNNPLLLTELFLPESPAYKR
Method: as §1, §2

[10] = molecular target: chorismate-pyruvate lyase of Pseudoalteromonas haloplanktis (Pseudoalteromonas haloplanktis, UniProt A0A9W4VR20, L6V); assay: as above; format: biochemical
Sequence of chorismate-pyruvate lyase of Pseudoalteromonas haloplanktis (A0A9W4VR20 entry or part of it L6V): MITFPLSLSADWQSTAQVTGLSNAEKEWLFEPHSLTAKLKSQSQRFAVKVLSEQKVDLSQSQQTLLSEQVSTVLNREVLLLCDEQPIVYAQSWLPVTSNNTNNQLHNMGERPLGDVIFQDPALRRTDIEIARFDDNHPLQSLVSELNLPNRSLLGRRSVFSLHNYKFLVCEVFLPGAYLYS
Method: as §1, §2

[11] = molecular target: chorismate-pyruvate lyase of Pseudomonas putida (Pseudomonas putida, UniProt Q88C66); assay: as above; format: biochemical; conditions: cell lysate supernatant of strain HBA17
Sequence of chorismate-pyruvate lyase of Pseudomonas putida (Q88C66 whole entry): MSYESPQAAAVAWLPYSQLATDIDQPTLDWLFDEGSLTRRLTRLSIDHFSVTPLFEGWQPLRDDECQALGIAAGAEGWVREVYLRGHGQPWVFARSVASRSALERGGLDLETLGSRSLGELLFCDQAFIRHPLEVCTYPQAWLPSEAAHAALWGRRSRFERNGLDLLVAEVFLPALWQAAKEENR
Method: as §1, §2

[12] = molecular target: chorismate-pyruvate lyase of Enterobacter cloacae (Enterobacter cloacae, UniProt A0A0H3CH24); assay: as above; format: biochemical; conditions: cell lysate supernatant of strain HBA16
Sequence of chorismate-pyruvate lyase of Enterobacter cloacae (A0A0H3CH24 entry or part of it): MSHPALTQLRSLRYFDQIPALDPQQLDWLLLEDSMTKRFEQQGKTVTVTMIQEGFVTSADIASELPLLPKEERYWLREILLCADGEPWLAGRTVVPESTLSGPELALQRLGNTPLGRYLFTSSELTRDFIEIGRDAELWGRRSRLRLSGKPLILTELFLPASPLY
Method: as §1, §2

[13] = molecular target: chorismate-pyruvate lyase of Providencia rustigianii (Providencia rustigianii, UniProt D1P752); assay: as above; format: biochemical; conditions: cell lysate supernatant of strain HBA2
Sequence of chorismate-pyruvate lyase of Providencia rustigianii (D1P752 1-167): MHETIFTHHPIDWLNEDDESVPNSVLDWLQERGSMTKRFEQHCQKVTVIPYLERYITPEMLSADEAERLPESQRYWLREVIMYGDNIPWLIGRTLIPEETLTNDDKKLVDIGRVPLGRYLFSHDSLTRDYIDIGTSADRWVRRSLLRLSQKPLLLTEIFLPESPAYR
Method: as §1, §2

[14] = molecular target: chorismate-pyruvate lyase of Cupriavidus taiwanensis (Cupriavidus taiwanensis, UniProt B3R6T5); assay: as above; format: biochemical
Sequence of chorismate-pyruvate lyase of Cupriavidus taiwanensis (B3R6T5 entry or part of it): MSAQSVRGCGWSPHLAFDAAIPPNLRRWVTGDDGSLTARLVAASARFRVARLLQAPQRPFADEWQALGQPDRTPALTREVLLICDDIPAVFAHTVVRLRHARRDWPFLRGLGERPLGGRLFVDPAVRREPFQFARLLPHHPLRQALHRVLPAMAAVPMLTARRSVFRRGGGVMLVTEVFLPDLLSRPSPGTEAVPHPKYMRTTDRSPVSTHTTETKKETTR
Method: as §1, §2

[15] = molecular target: chorismate-pyruvate lyase of Providencia stuartii (Providencia stuartii, UniProt A0A1S1HSD5); assay: as above; format: biochemical; conditions: cell lysate supernatant of strain HBA3
Sequence of chorismate-pyruvate lyase of Providencia stuartii (A0A1S1HSD5 entry or part of it): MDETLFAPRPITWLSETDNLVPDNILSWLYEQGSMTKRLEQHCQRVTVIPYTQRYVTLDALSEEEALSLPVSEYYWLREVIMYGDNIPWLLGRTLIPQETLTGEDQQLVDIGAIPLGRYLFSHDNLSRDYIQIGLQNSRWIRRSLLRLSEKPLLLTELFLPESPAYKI
Method: as §1, §2

[16] = molecular target: chorismate-pyruvate lyase of Pantoea ananatis (Pantoea ananatis, UniProt A0ACE3JNM4); assay: as above; format: biochemical; conditions: cell lysate supernatant of strain HBA1
Sequence of chorismate-pyruvate lyase of Pantoea ananatis (A0ACE3JNM4 1-170): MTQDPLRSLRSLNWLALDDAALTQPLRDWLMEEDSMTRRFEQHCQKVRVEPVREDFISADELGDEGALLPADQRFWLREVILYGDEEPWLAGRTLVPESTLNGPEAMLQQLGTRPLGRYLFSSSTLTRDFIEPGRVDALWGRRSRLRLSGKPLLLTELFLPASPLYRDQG
Method: as §1, §2

[17] = molecular target: chorismate-pyruvate lyase of Providencia alcalifaciens (Providencia alcalifaciens, UniProt B6XE56); assay: as above; format: biochemical; conditions: cell lysate supernatant of strain HBA6
Sequence of chorismate-pyruvate lyase of Providencia alcalifaciens (B6XE56 1-167): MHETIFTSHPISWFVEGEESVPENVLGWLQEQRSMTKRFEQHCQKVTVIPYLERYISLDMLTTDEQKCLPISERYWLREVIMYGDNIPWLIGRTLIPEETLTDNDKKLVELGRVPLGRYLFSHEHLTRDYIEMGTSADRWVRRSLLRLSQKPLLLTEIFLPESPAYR
Method: as §1, §2

[18] = molecular target: chorismate-pyruvate lyase of Azotobacter vinelandii (Azotobacter vinelandii, UniProt C1DK46); assay: as above; format: biochemical; conditions: cell lysate supernatant of strain HBA19
Sequence of chorismate-pyruvate lyase of Azotobacter vinelandii (C1DK46 1-183): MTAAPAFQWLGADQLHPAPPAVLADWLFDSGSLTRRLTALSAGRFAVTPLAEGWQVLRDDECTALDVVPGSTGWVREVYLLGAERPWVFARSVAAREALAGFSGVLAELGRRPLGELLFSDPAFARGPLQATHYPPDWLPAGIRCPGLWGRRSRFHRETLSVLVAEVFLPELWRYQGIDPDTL
Method: as §1, §2

[19] = molecular target: chorismate-pyruvate lyase of Pseudoalteromonas piscicida (Pseudoalteromonas piscicida, UniProt A0ABN5CDX6, M1V); assay: as above; format: biochemical; conditions: cell lysate supernatant of strain HBA10
Sequence of chorismate-pyruvate lyase of Pseudoalteromonas piscicida (A0ABN5CDX6 1-160, stated change not applied): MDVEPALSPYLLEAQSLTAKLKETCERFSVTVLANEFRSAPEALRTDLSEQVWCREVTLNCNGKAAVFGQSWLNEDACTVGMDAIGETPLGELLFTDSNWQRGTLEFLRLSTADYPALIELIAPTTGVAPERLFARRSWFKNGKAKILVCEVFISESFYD
Method: as §1, §2

[20] = system: Corynebacterium glutamicum R; assay: Growth inhibition test in aerobic culture (influence of 4-HBA); format: cell-based; conditions: for Growth of Corynebacterium glutamicum: aerobic, A liquid medium, 33° C., OD610
Method: (§3) A growth inhibition test in aerobic culture was performed to examine the influence of 4-HBA on Corynebacterium glutamicum, Escherichia coli, Pseudomonas putida, and Rhodobacter sphaeroides. Pseudomonas putida S12, which was used for the test, is reported to be a solvent-resistant strain to produce 4-HBA via tyrosine.
Corynebacterium glutamicum was applied to A agar medium (2 g of (NH2)2CO, 7 g of (NH4)2SO4, 0.5 g of KH2PO4, 0.5 g of K2HPO4, 0.5 g of MgSO4.7H2O, 1 mL of 0.06% (w/v) Fe2SO4.7H2O+0.042% (w/v) MnSO4.2H2O, 1 mL of 0.02% (w/v) biotin solution, 2 mL of 0.01% (w/v) thiamin solution, 2 g of yeast extract, 7 g of vitamin assay casamino acid, 40 g of glucose, and 15 g of agar were suspended in 1 L of distilled water) and was left stand in the dark at 33° C. for 15 hours.
An inoculation loop of Corynebacterium glutamicum R strain grown on a plate as above was inoculated into a test tube containing 10 mL of A liquid medium (2 g of (NH2)2CO, 7 g of (NH4)2SO4, 0.5 g of KH2PO4, 0.5 g of K2HPO4, 0.5 g of MgSO4.7H2O, 1 mL of 0.06% (w/v) Fe2SO4.7H2O+0.042% (w/v) MnSO4.2H2O, 1 mL of 0.02% (w/v) biotin solution, 2 mL of 0.01% (w/v) thiamin solution, 2 g of yeast extract, 7 g of vitamin assay casamino acid, and 40 g of glucose were suspended in 1 L of distilled water) and was aerobically cultured with shaking at 33° C. for 15 hours.
(§4) The Corynebacterium glutamicum R strain grown in the above conditions was inoculated into 10 mL of A liquid medium in such a way that the initial bacterial cell concentration would be OD610=0.05, 4-HBA was added at the same time in such a way that the final concentration would be 0, 100, 200, 250, or 300 mM, and aerobic culture was performed with shaking at 33° C. The growth of the bacterial cells was determined by absorbance measurement at OD610.

[21] = system: Pseudomonas putida S12; assay: as above; format: cell-based; conditions: 200 mM 4-HBA, LB liquid medium, 30° C., OD610
Method: as §3
Pseudomonas putida S12 was applied to LB agar medium (1% polypeptone, 0.5% yeast extract, 0.5% NaCl and 1.5% agar) and was left stand in the dark at 30° C. for 15 hours.
An inoculation loop of the Pseudomonas putida S12 grown on a plate as above was applied to LB liquid medium (1% polypeptone, 0.5% yeast extract, and 0.5% NaCl), and aerobic culture was performed with shaking at 30° C. for 13 hours.
as §4, with “The Pseudomonas putida S12” for “The Corynebacterium glutamicum R strain”, “into 100” for “into 10”, “of LB” for “of A”, “200,” for “200, 250,”, “at 30°” for “at 33°”

[22] = system: Rhodobacter sphaeroides; assay: as above; format: cell-based; conditions: LB liquid medium, 30° C., OD610
Method: as §3
Rhodobacter sphaeroides was applied to LB agar medium (1% polypeptone, 0.5% yeast extract, 0.5% NaCl and 1.5% agar) and was left stand in the dark at 30° C. for 20 hours.
An inoculation loop of the Rhodobacter sphaeroides grown on a plate as above was applied to LB liquid medium (1% polypeptone, 0.5% yeast extract, and 0.5% NaCl), and aerobic culture was performed with shaking at 30° C. for 13 hours.
(§5) The Rhodobacter sphaeroides grown in the above conditions was inoculated into 100 mL of LB liquid medium in such a way that the initial bacterial cell concentration would be OD=0.1, 4-HBA was added at the same time in such a way that the final concentration would be 0, 100, or 200 mM, and aerobic culture was performed with shaking at 30° C. The growth of the bacterial cells was determined by absorbance measurement at OD610.

[23] = system: Escherichia coli JM109; assay: as above; format: cell-based; conditions: LB liquid medium, 37° C., OD610
Method: as §3
Escherichia coli JM109 was applied to LB agar medium (1% polypeptone, 0.5% yeast extract, 0.5% NaCl and 1.5% agar) and was left stand in the dark at 37° C. for 15 hours.
An inoculation loop of the Escherichia coli JM109 grown on a plate as above was applied to LB liquid medium (1% polypeptone, 0.5% yeast extract, and 0.5% NaCl), and aerobic culture was performed with shaking at 37° C. for 13 hours.
as §5, with “Escherichia coli JM109” for “Rhodobacter sphaeroides”, “OD=0.05,” for “OD=0.1,”, “37°” for “30°”

O=C(O)c1ccc(O)cc1 [Strain 4-HBA, 4-hydroxybenzoic acid]
IC50 [1]: 401 µM
IC50 [2]: 76 µM
IC50 [3]: 61 µM
IC50 [4]: 79 µM
IC50 [5]: 130 µM
IC50 [6]: 67 µM
IC50 [7]: 83 µM
IC50 [8]: 73 µM
IC50 [9]: 338 µM
IC50 [10]: 78 µM
IC50 [11]: 68 µM
IC50 [12]: 105 µM
IC50 [13]: 364 µM
IC50 [14]: 149 µM
IC50 [15]: 368 µM
IC50 [16]: 69 µM
IC50 [17]: 301 µM
IC50 [18]: 69 µM
IC50 [19]: 73 µM
Growth of Corynebacterium glutamicum ([20]; 200 mM 4-HBA): able to grow
Growth, % of the OD610 of wild strain ([20]; 250 mM 4-HBA, 28 hours after the start of the culture, same extent as in the presence of 200 mM 4-HBA, data not shown): about 65%
Growth of Corynebacterium glutamicum ([20]; 250 mM 4-HBA): able to grow
Growth of Pseudomonas putida S12 [21]: completely inhibited
Growth of Rhodobacter sphaeroides ([22]; 100 mM 4-HBA): completely inhibited
Growth of Rhodobacter sphaeroides ([22]; 200 mM 4-HBA): completely inhibited
Growth of Escherichia coli ([23]; 100 mM 4-HBA): significantly affected
Growth of Escherichia coli ([23]; 200 mM 4-HBA): completely inhibited
